# Test system: peptide-pulsed C1R-A03
# Assay: In vitro CTL induction, IFN-gamma ELISPOT assay (HLA-A*0301)
# Format: cell-based, human
# Settings: CTLs induced from HLA-A*0301-positive donors, against peptide-pulsed C1R-A03, compared with control
# From the text: Monocyte-derived dendritic cells (DCs) were used as the antigen-presenting cell to induce a cytotoxic T lymphocyte (CTL) response against peptides presented on human leukocyte antigens (HLAs). As described in the other sections, DCs were generated in vitro (Nakahara S et al., Cancer Res 2003, 63(14): 4112-8). Specifically, peripheral-blood mononuclear cells isolated from healthy volunteers (HLA-A*0301-positive) with the Ficoll-Paque plus solution (Pharmacia) were separated by attaching to plastic tissue culture dishes (Becton Dickinson) and concentrated as a monocyte fraction. The monocyte-concentrated population was cultured in the presence of 1000 IU/ml granulocyte macrophage colony-stimulating factor (R&D System) and 1000 IU/ml interleukin(IL)-4 (R&D System) in an AIM-V medium (Invitrogen) containing 2% heat-inactivated autologous serum (AS). After seven days of culturing, the cytokine-induced DCs were pulsed with 20 micro-g/ml each of the synthesized peptides in an AIM-V medium at 37 degrees C. for three hours in the presence of 3 micro-g/ml beta 2-microglobulin. The generated cells appeared to express on their cell surface DC-associated molecules such as CD80, CD83, CD86 and HLA class II (data not shown). Next, these peptide-pulsed DCs were inactivated by X-ray irradiation (20 Gy), and mixed in a 1:20 ratio with autologous CD8^+ T cells obtained by positive selection using the CD8 Positive Isolation Kit (Dynal). These culture products were seeded in a 48-well plate (Corning). Each well was made to contain 1.5×10^4 peptide-pulsed DCs, 3×10^5 CD8^+ T cells and 10 ng/ml IL-7 (R&D System) in 0.5 ml of the AIM-V/2% AS medium. Three days later, these culture products were added with a final concentration of 20 IU/ml IL-2 (CHIRON). On day 7 and day 14, T cells were further stimulated with peptide-pulsed autologous DCs. The DCs were prepared every time by the same method as above. On day 21, after the third peptide stimulation, CTLs were examined against the peptide-pulsed C1R-A03 by a human interferon (IFN)-gamma enzyme-linked immunospot (ELISPOT) assay (Tanaka H et al., Br J Cancer 2001, 84(1): 94-9; Umano Y et al., Br J Cancer 2001, 84(8): 1052-7; Uchida N et al., Clin Cancer Res 2004, 10(24): 8577-86; Suda T et al., Cancer Sci 2006, 97(5): 411-9; Watanabe T et al., Cancer Sci 2005, 96(8): 498-506).
# To examine specific CTL activity, an IFN-gamma ELISPOT assay and an IFN-gamma enzyme-linked immunosorbent assay (ELISA) were performed. Specifically, peptide-pulsed C1R-A03 (1×10^4 cells/well) was prepared as the stimulator cell. The induced CTLs, i.e., CTL lines and CTL clones, were used as the responder cell. The IFN-gamma ELISPOT assay and IFN-gamma ELISA were performed according to the manufacturer's manual.
row,Sequence,peptide-specific CTL activity (IFN-gamma production)
1,"AMERPKPEEK (a peptide derived from URLC10) [SEQ ID NO 16, URLC10-derived 10mer peptide, start position 149]",potent IFN-gamma production
2,"CSAGCAAMER (a peptide derived from URLC10) [SEQ ID NO 15, URLC10-derived 10mer peptide, start position 143]",potent IFN-gamma production
3,"GLWLAILLLL (a peptide derived from URLC10) [SEQ ID NO 27, URLC10-derived 10mer peptide, start position 204]",potent IFN-gamma production
4,"GPPINSSVFK (a peptide derived from URLC10) [SEQ ID NO 17, URLC10-derived 10mer peptide, start position 183]",potent IFN-gamma production
5,"IAAVKIFPR (a peptide derived from URLC10) [SEQ ID NO 3, URLC10-derived 9mer peptide, start position 127]",potent IFN-gamma production
6,"ILLLLASIAA (a peptide derived from URLC10) [SEQ ID NO 30, URLC10-derived 10mer peptide, start position 209]",potent IFN-gamma production
7,"KIFPRFFMV (a peptide derived from URLC10) [SEQ ID NO 6, URLC10-derived 9mer peptide, start position 131]",potent IFN-gamma production
8,"LLEEPMPFFY (a peptide derived from URLC10) [SEQ ID NO 18, URLC10-derived 10mer peptide, start position 161]",potent IFN-gamma production
9,"LLLVVALPR (a peptide derived from URLC10) [SEQ ID NO 5, URLC10-derived 9mer peptide, start position 64]",potent IFN-gamma production
10,"RQAPAGGRR (a peptide derived from URLC10) [SEQ ID NO 8, URLC10-derived 9mer peptide, start position 7]",specific IFN-gamma production was not observed
11,"VIAAVKIFPR (a peptide derived from URLC10) [SEQ ID NO 14, URLC10-derived 10mer peptide, start position 126]",potent IFN-gamma production

# Source: patent US10576097B2, “URLC10-derived peptide and vaccine containing same” (ONCOTHERAPY SCIENCE, INC., priority 2014, dated 2020)
